Laboratory results as given in patent US5527703A (Merck & Co., Inc., priority 1994, dated 1996).
“Also recorded” adds a separate entry of the source.

Assays:
GluClα [1] = molecular target: T1, GluClα (Caenorhabditis elegans, UniProt G5EBR3); assay: 3H-glutamate equilibrium binding to GluClα injected oocyte membranes; parameters: the full-length open reading frame of the GluCl cDNA encoding the GluClα (52,550 kDa) and GluClβ (49,900kDa) subunits; expressed in transfected cells; host or cells: Xenopus laevis oocytes injected with in vitro RNA; species or system C. elegans; settings: membrane preparations from GluClα-injected oocytes
T1 sequence (G5EBR3 21-461): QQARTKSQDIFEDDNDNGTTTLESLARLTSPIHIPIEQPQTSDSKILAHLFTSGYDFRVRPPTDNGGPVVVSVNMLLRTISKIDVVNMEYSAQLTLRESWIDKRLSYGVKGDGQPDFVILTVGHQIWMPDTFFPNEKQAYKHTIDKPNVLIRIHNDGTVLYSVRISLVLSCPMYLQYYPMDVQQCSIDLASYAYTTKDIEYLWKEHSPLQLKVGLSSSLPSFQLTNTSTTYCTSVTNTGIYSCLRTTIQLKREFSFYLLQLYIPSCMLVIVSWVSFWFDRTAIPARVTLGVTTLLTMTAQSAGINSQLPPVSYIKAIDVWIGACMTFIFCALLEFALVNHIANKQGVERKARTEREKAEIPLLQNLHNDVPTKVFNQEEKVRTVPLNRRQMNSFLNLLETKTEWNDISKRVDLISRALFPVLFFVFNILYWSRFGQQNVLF
Experimental: (§1) Oocytes injected with GluClα and GluClβ in vitro RNA were used in ^3 H-ivermectin and ^3 H-glutamate binding assays. GluClα (1 ng) or GluClβ RNA (1 ng) were injected into oocytes individually, or coinjected (0.5 ng each) and 2 days later the oocytes were disrupted with a dounce homogenizer and yolk proteins removed using standard methods known in the art. Equilibrium ligand binding assays were performed using conventional procedures. […] Oocytes expressing GluCl α&β are used to measure the affinity of binding of othere compounds and their ability to displace ^3 H-ivermectin and ^3 H-glutamate binding.

GluCl α&β [2] = molecular target: T2, GluCl α&β (Caenorhabditis elegans, UniProt G5EBR3+Q17328); assay: Antagonist block of ligand-activated current in oocytes injected with GluClα and GluClβ RNA; assay type: cell-based, C. elegans; settings: for inhibition at 100 µM: read-out: % Block; for % Block: blocker 100 μM
T2 construct: the full-length open reading frame of the GluCl cDNA encoding the GluClα (52,550 kDa) and GluClβ (49,900kDa) subunits; expressed in transfected cells; host or cells: Xenopus laevis oocytes injected with in vitro RNA
T2 sequence (G5EBR3 21-461): T1 sequence (G5EBR3 21-461)
T2 sequence (Q17328 23-434): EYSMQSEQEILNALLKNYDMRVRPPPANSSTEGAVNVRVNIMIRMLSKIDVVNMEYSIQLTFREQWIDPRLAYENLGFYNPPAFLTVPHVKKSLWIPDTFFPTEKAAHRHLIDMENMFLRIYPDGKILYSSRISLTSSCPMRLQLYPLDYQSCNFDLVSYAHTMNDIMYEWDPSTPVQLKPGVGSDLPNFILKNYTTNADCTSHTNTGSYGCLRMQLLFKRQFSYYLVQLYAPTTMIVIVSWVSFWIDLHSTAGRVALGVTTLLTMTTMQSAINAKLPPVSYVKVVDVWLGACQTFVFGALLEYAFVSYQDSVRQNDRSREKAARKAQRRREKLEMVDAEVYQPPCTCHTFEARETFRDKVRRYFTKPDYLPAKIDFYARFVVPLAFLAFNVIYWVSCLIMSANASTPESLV
Experimental: (§2) Xenopus laevis oocytes were prepared and injected using standard methods previously described and known in the art [Arena, J. P., Liu. K. K., Paress, P. S. & Cully. D. F. Mol. Pharmacol. 40, 368-374 (1991 ); Arena, J. P., Liu, K. K., Paress, P. S., Schaeffer, J. M. & Cully, D. F. Mol. Brain Res. 15, 339-348 (1992)]. Adult female Xenopus laevis were anesthetized with 0.17% tricaine methanesulfonate and the ovaries were surgically removed and placed in a dish consisting of (mM): NaCl 1 82.5, KCl 2. MgCl2 1, CaCl2 1.8, HEPES 5 adjusted to pH 7.5 with NaOH (OR-2). Ovarian lobes were broken open, rinsed several times, and gently shaken in OR-2 containing 0.2% collagenase (Sigma, Type 1A) for 2-5 hours. When approximately 50% of the follicular layers were removed, Stage V and VI oocytes were selected and placed in media consisting of (mM): NaCl 86, KCl 2, MgCl2 1, CaCl2 1.8, HEPES 5, Na pyruvate 2.5, theophylline 0.5, gentamicin 0.1 adjusted to pH 7.5 with NaOH (ND-96) for 24-48 hours before injection. Oocytes were injected with 50-70 nl of poly(A^+) RNA (1 mg/ml) or 50 nl of GluClα (0.1-100 ng) and/or GluClβ (0.1-100 ng). Control oocytes were injected with 50 nl of water. Oocytes were incubated for 2-10 days in ND-96 before recording. Incubations and collagenase digestion were carried out at 18° C.
(§3) Recordings were made at room temperature 2-10 days after injection. Unless otherwise indicated recordings were made in standard frog saline consisting of (mM): NaCl 115, KCl 2, MgCl2 1, CaCl2 1.8, HEPES 10 adjusted to pH 7.5 with NaOH. Oocytes were voltage-clamped using a standard two microelectrode amplifier (Dagan 8500 or TEV-200, Minneapolis,Minn.). Pipettes were filled with 3M KCl and had resistances between 0.5-3.0 M.OMEGA.. A plexiglass recording chamber (volume 200 μl) was constantly perfused at a rate of 10 ml/min. The recording chamber was connected to ground with a Ag/AgCl electrode directly, or through a 3M KCl agar bridge when extracellular chloride was varied. For low chloride solutions NaCl was replaced with equimolar concentrations of sodium isethionic acid. For low sodium solutions NaCl was replaced with equimolar KCl or choline Cl. Data were acquired and analyzed using PCLAMP with a TL-1 interface (Axon Instruments, Foster City, Calif.). Membrane current at a holding potential of -80 mV was recorded. The amplitude of drug-sensitive current was determined by subtracting the holding current at -80 mV from the peak current obtained in the presence of drug. Data were filtered at 30 Hz and sampled at 16.6 Hz. Current/voltage relationships (I/V) and reversal potentials (Erev) were determined using a 1-3 sec voltage ramp over the voltage range of -110 to +80 mV. For the ramps, data were filtered at 0.3-3 kHz and sampled at 160 Hz. Current in drug free solution was subtracted from current in the presence of drug to obtain drug-sensitive current/voltage relationships.
Oocytes were injected simultaneously with GluClα and GluClβ RNA
(25 pg each). n=at least four for each group. a- Data are expressed as %
acid. e- Block was considered zero if response in the presence of blocker
was ± 3% of control. f- (-)-Bicuculline methochloride g.

[3] = system: glutamate- and avermectin-sensitive chloride channel (C. elegans poly(A)+ RNA); settings: cited from earlier work
GluCl α&β [4] = molecular target: T2, GluCl α&β; assay: Agonist activation of current in Xenopus oocytes injected with GluClα and GluClβ RNA (two-microelectrode voltage clamp); assay type: cell-based, C. elegans
Experimental: as §2, §3
(§4) Electrophysiological properties were examined in oocytes injected with in vitro RNA from pGluClα and pGluClβ (FIG. 5).
Several ligand-gated ion channel agonists and antagonists were tested on oocytes injected with GluCl α&β (Table 1). […] 255, 449-464 (1976); Arena, J. P., Liu, K. K., Paress, P. S., Schaeffer, J. M. & Cully, D. F. Mol. Brain Res. 15, 339-348 (1992); Lea, T. J. & Usherwood, P. N. R. Comp. Gen. Pharmacol. 4, 351-363 (1973)].

arthropod H-receptors = settings: cited from earlier work
GluClα [5] = molecular target: T1, GluClα; assay: Activation of current in Xenopus oocytes expressing homomeric GluClα (voltage clamp); assay type: cell-based, C. elegans; parameters: the full-length open reading frame of the GluCl cDNA encoding the GluClα (52,550 kDa) and GluClβ (49,900kDa) subunits; expressed in transfected cells; host or cells: Xenopus laevis oocytes injected with in vitro RNA
Experimental: as §2, §3, §4

GluClβ = molecular target: T3, GluClβ (Caenorhabditis elegans, UniProt Q17328); assay: Activation of current in Xenopus oocytes expressing homomeric GluClβ (voltage clamp); assay type: cell-based, C. elegans
T3 construct: the full-length open reading frame of the GluCl cDNA encoding the GluClα (52,550 kDa) and GluClβ (49,900kDa) subunits; expressed in transfected cells; host or cells: Xenopus laevis oocytes injected with in vitro RNA
T3 sequence (Q17328 23-434): T2 sequence (Q17328 23-434)
Experimental: as §2, §3, §4

GluCl α&β [6] = molecular target: T2, GluCl α&β; assay: 3H-ivermectin equilibrium binding to GluCl α&β RNA injected oocytes; parameters: species or system C. elegans; settings: read-out: affinity of 3H-ivermectin binding; oocytes expressing GluCl α&β
Experimental: as §1

GluClα [7] = molecular target: T1, GluClα; assay: 3H-ivermectin equilibrium binding to GluClα RNA injected oocytes; parameters: the full-length open reading frame of the GluCl cDNA encoding the GluClα (52,550 kDa) and GluClβ (49,900kDa) subunits; expressed in transfected cells; host or cells: Xenopus laevis oocytes injected with in vitro RNA; species or system C. elegans; settings: read-out: affinity of 3H-ivermectin binding; oocytes expressing GluClα
Experimental: as §1

GluClα [8] = molecular target: T1, GluClα; assay: Permeability (reversal potential) of GluClα channels in oocytes; assay type: cell-based, C. elegans; parameters: homomeric channel; voltage clamp reversal potentials; settings: Erev in Na isothionate
Experimental: Xenopus laevis oocytes were prepared and injected using standard methods previously described and known in the art [Arena, J. P., Liu. K. K., Paress, P. S. & Cully. D. F. Mol. Pharmacol. 40, 368-374 (1991 ); Arena, J. P., Liu, K. K., Paress, P. S., Schaeffer, J. M. & Cully, D. F. Mol. Brain Res. 15, 339-348 (1992)]. Adult female Xenopus laevis were anesthetized with 0.17% tricaine methanesulfonate and the ovaries were surgically removed and placed in a dish consisting of (mM): NaCl 1 82.5, KCl 2. MgCl2 1, CaCl2 1.8, HEPES 5 adjusted to pH 7.5 with NaOH (OR-2). Ovarian lobes were broken open, rinsed several times, and gently shaken in OR-2 containing 0.2% collagenase (Sigma, Type 1A) for 2-5 hours. […]
Recordings were made at room temperature 2-10 days after injection. […] Data were acquired and analyzed using PCLAMP with a TL-1 interface (Axon Instruments, Foster City, Calif.). Membrane current at a holding potential of -80 mV was recorded. The amplitude of drug-sensitive current was determined by subtracting the holding current at -80 mV from the peak current obtained in the presence of drug. […] Current/voltage relationships (I/V) and reversal potentials (Erev) were determined using a 1-3 sec voltage ramp over the voltage range of -110 to +80 mV. […]

^3 H-glutamate
Specific 3H-glutamate binding (GluClα [1]): observed

O=C(O)c1ccccc1Nc1cccc(C(F)(F)F)c1 [Flufenamic Acid]
block of glutamate- and IVMPO4-sensitive currents (GluCl α&β [2]): blocked; also recorded: low affinity block
inhibition at 200 µM (GluCl α&β [2]; blocker 200 μM, ligand IVMPO4 1 μM): 60 ± 4%

O=C1C[C@@H]2OCC=C3CN4CC[C@]56c7ccccc7N1[C@H]5[C@H]2[C@H]3C[C@H]46 [Strychnine]
inhibition at 100 µM (GluCl α&β [2]): 0%

NC(C(=O)O)c1cc(=O)[nH]o1 (stereo not shown) [Ibotenate]
effect on glutamate- and avermectin-sensitive current [3]: activated
activation of current / sensitivity of coexpressed GluCl α&β (GluCl α&β [4]): direct activation of current
Emax at 500 µM (GluCl α&β [4]; read-out: % of Glutamate 10 mM): 18 ± 2%
effect on arthropod H-receptors (arthropod H-receptors): activated

N#Cc1cc2[nH]c(=O)c(=O)[nH]c2cc1[N+](=O)[O-] [CNQX, 6-cyano-7-nitroquino-xaline-2,3-dione]
inhibition at 10 µM (GluCl α&β [2]): 0%

C[N+]1(C)CCc2cc3c(cc2C1C1OC(=O)c2c1ccc1c2OCO1)OCO3 (single isomer, unassigned; (-)) [Bicuculline, (-)-Bicuculline methochloride]
inhibition at 100 µM (GluCl α&β [2]): 0%

Picrotoxin
effect on glutamate- and avermectin-sensitive current [3]: blocked with low affinity
block of glutamate- and IVMPO4-sensitive currents (GluCl α&β [2]): blocked; also recorded: low affinity block
% Block (GluCl α&β [2]; ligand IVMPO4 1 μM): 61 ± 2%
% Block (GluCl α&β [2]; ligand glutamate 1 mM, zero if within ± 3% of control): 68 ± 4%
effect on arthropod H-receptors (arthropod H-receptors): blocked with low affinity

NCCCC(=O)O [GABA]
sensitivity of GluClα homomeric channels (GluClα [5]): insensitive
activation of current / sensitivity of coexpressed GluCl α&β (GluCl α&β [4]): insensitivity
sensitivity of GluClβ homomeric channels (GluClβ): insensitive
effect on arthropod H-receptors (arthropod H-receptors): not activated

NCC(=O)O [Glycine]
sensitivity of GluClα homomeric channels (GluClα [5]): insensitive
activation of current / sensitivity of coexpressed GluCl α&β (GluCl α&β [4]): insensitivity
sensitivity of GluClβ homomeric channels (GluClβ): insensitive

CC[C@H](C)[C@H]1O[C@]2(CC[C@@H]1C)C[C@@H]1C[C@@H](C/C=C(\C)[C@@H](O[C@H]3C[C@H](OC)[C@@H](O[C@H]4C[C@H](OC)[C@@H](O)[C@H](C)O4)[C@H](C)O3)[C@@H](C)/C=C/C=C3\CO[C@@H]4[C@H](O)C(C)=C[C@@H](C(=O)O1)[C@]34O)O2 [^3 H-ivermectin, 22,23-dihydroavermectin B1a]
Kd (GluCl α&β [6]): ~200 pM
Kd (GluClα [7]): ~200 pM

O=S(=O)(O)CCO [isothionate]
permeability ratio to chloride (GluClα [8]): 0.2
